Assay results as given in US20180320217A1, “METHODS FOR SAMPLING AND MEASURING ORAL LAVAGE PROTEINS” (The Procter & Gamble Company, priority 2017, published 2018).
“And” between values parts separate entries of the source, which are not always exact repeats. Equal entries are not always repeated. “Also recorded” adds a separate entry of the source.

Experiments:
oral lavage [1] = experiment: Formation of formazan dyes: oral lavage and 1-Methoxy PMS, absence of malate (TABLE 19); assay type: biochemical, human
diaphorase [2] = experiment: Formation of formazan dyes: NADH, diaphorase and malate (TABLE 8); assay type: biochemical, Clostridium kluyveri; settings: NADH, diaphorase and malate
[3] = Formation of formazan dyes: NADH and 1-methoxy PMS, absence of malate (TABLE 15); assay type: biochemical
oral lavage [4] = experiment: Formation of formazan dyes: oral lavage, malate and diaphorase (TABLE 12); assay type: biochemical, human; settings: oral lavage, malate and diaphorase
[5] = Formation of formazan dyes: NADH, malate and 1-methoxy PMS (TABLE 16); assay type: biochemical
diaphorase [6] = experiment: Formation of formazan dyes: NADH and diaphorase, absence of malate (TABLE 7); assay type: biochemical, Clostridium kluyveri; settings: NADH and diaphorase, absence of malate
diaphorase [7] = experiment: Formation of formazan dyes: only diaphorase, not malate (TABLE 13); assay type: biochemical, Clostridium kluyveri; settings: mean of three experiments
oral lavage [8] = experiment: Formation of formazan dyes: oral lavage and diaphorase, not malate (TABLE 11); assay type: biochemical, human
[9] = Formation of formazan dyes: control buffer, malate and 1-Methoxy PMS (TABLE 22); assay type: biochemical
[10] = system: Malate dehydrogenase and diaphorase; experiment: Formation of formazan dyes: Malate dehydrogenase and diaphorase, absence of malate (TABLE 9); assay type: biochemical, pig heart
Malate dehydrogenase = target: T1, Malate dehydrogenase (Sus scrofa, UniProt P00346); experiment: Formation of formazan dyes: Malate dehydrogenase and 1-Methoxy PMS, absence of malate (TABLE 17); assay type: biochemical, pig heart; design: L-malate dehydrogenase (pig heart); purchased Sigma-Aldrich 10127248001 / 10127914001
T1 sequence (P00346 25-338): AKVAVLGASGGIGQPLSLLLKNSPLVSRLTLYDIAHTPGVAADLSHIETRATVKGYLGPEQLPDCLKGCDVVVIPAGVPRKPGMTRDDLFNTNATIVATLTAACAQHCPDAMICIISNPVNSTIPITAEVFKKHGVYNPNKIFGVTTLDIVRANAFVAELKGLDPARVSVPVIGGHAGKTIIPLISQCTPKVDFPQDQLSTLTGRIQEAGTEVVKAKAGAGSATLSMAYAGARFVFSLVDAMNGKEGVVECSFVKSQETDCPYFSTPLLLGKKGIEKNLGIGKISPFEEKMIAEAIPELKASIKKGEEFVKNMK

[11] = system: Malate dehydrogenase and diaphorase; experiment: Formation of formazan dyes: Malate dehydrogenase, diaphorase and malate (TABLE 10); assay type: biochemical, pig heart
[12] = Formation of formazan dyes: control buffer and 1-Methoxy PMS, absence of malate (TABLE 21); assay type: biochemical
diaphorase [13] = experiment: Formation of formazan dyes: only diaphorase and malate (TABLE 14); assay type: biochemical, Clostridium kluyveri; settings: mean of three experiments

With “2-Benzothiazoryl-3-(4-carboxy-2-methoxyphenyl)-5-[4-(2-sulfoethylcarbamoyl)phenyl]-2H-tetrazolium [WST-4]” the “Absorbance, formation of formazan dyes (Means)” value (from here on “Absorbance, formation”) (oral lavage [1]) was 0.78 and 1.07 and 1.15 and 1.22, the “Formation of formazan dyes, absorbance, Means 0 h” value (“Formation … Means 0 h” below) (diaphorase [2]; 0 h) was 1.92 and the “Formation of formazan dyes, absorbance, Means 1 h” value (from here on “Formation … Means 1 h”) (diaphorase [2]; 1 h) was 1.91. The “Formation of formazan dyes, absorbance, Means 2 h” value (shortened to “Formation … Means 2 h”) (diaphorase [2]; 2 h) was 1.91, the “Formation of formazan dyes, absorbance, Means 3 h” value (“Formation … Means 3 h” below) (diaphorase [2]; 3 h) was 1.89 and the “Formation of formazan dyes, absorbance, Means 4 h” value (from here on “Formation … Means 4 h”) (diaphorase [2]; 4 h) was 1.97. For the same substance, the “Formation of formazan dyes, absorbance, Means 6 h” value (shortened to “Formation … Means 6 h”) (diaphorase [2]; 6 h) was 1.94, the “Formation of formazan dyes, absorbance, Means 8 h” value (“Formation … Means 8 h” below) (diaphorase [2]; 8 h) was 1.92 and the “Formation of formazan dyes, absorbance, Means 10 h” value (from here on “Formation … Means 10 h”) (diaphorase [2]; 10 h) was 1.88. The “Formation of formazan dyes, absorbance, Means 12 h” value (“Formation … Means 12 h” below) (diaphorase [2]; 12 h) was 1.83, the “Absorbance, formation” value [3] was 1.52 and 1.57 and 1.64 and the “Formation … Means 0 h” value (oral lavage [4]; 0 h) was 0.44. For the same substance, the “Formation … Means 1 h” value (oral lavage [4]; 1 h) was 0.56, the “Formation … Means 2 h” value (oral lavage [4]; 2 h) was 0.63 and the “Formation … Means 3 h” value (oral lavage [4]; 3 h) was 0.67. For the same substance, the “Formation … Means 4 h” value (oral lavage [4]; 4 h) was 0.77, the “Formation … Means 6 h” value (oral lavage [4]; 6 h) was 0.83 and the “Formation … Means 8 h” value (oral lavage [4]; 8 h) was 0.89. The “Formation … Means 10 h” value (oral lavage [4]; 10 h) was 0.96, the “Formation … Means 12 h” value (oral lavage [4]; 12 h) was 0.95 and the “Absorbance, formation” value [5] was 1.32 and 1.31 and 1.29 and 1.30. For the same substance, the “Formation … Means 0 h” value (diaphorase [6]; 0 h) was 1.96, the “Formation … Means 1 h” value (diaphorase [6]; 1 h) was 2.01 and the “Formation … Means 2 h” value (diaphorase [6]; 2 h) was 2.04. For the same substance, the “Formation … Means 3 h” value (diaphorase [6]; 3 h) was 2.08, the “Formation … Means 4 h” value (diaphorase [6]; 4 h) was 2.20 and the “Formation … Means 6 h” value (diaphorase [6]; 6 h) was 2.25. For the same substance, the “Formation … Means 8 h” value (diaphorase [6]; 8 h) was 2.29, the “Formation … Means 10 h” value (diaphorase [6]; 10 h) was 2.30 and the “Formation … Means 12 h” value (diaphorase [6]; 12 h) was 2.32. The “Absorbance, formation” value (diaphorase [7]; 0 h) was 0.22, the “Absorbance, formation” value (diaphorase [7]; 1 h) was 0.35 and the “Absorbance, formation” value (diaphorase [7]; 2 h) was 0.40. For the same substance, the “Absorbance, formation” value (diaphorase [7]; 3 h) was 0.40, the “Absorbance, formation” value (diaphorase [7]; 4 h) was 0.38 and the “Absorbance, formation” value (diaphorase [7]; 6 h) was 0.30. For the same substance, the “Absorbance, formation” value (diaphorase [7]; 8 h) was 0.32, the “Absorbance, formation” value (diaphorase [7]; 10 h) was 0.36 and the “Absorbance, formation” value (diaphorase [7]; 12 h) was 0.39. The “Formation … Means 0 h” value (oral lavage [8]; oral lavage and diaphorase, not malate, 0 h) was 0.55, the “Formation … Means 1 h” value (oral lavage [8]; oral lavage and diaphorase, not malate, 1 h) was 0.74 and the “Formation … Means 2 h” value (oral lavage [8]; oral lavage and diaphorase, not malate, 2 h) was 0.76. For the same substance, the “Formation … Means 3 h” value (oral lavage [8]; oral lavage and diaphorase, not malate, 3 h) was 0.80, the “Formation … Means 4 h” value (oral lavage [8]; oral lavage and diaphorase, not malate, 4 h) was 0.78 and the “Formation … Means 6 h” value (oral lavage [8]; oral lavage and diaphorase, not malate, 6 h) was 0.88. For the same substance, the “Formation … Means 8 h” value (oral lavage [8]; oral lavage and diaphorase, not malate, 8 h) was 0.90, the “Formation … Means 10 h” value (oral lavage [8]; oral lavage and diaphorase, not malate, 10 h) was 0.87 and the “Formation … Means 12 h” value (oral lavage [8]; oral lavage and diaphorase, not malate, 12 h) was 0.93. The “reduction to formazan dyes by pooled oral lavage” value (oral lavage [8]; pooled oral lavage of high bleeder group, diaphorase, no added malate (TABLE 11)) was “partially reduced to formazan dyes”, the “Means absorbance 0 h” value [9] was 0.13 and the “Means absorbance 1 h” value [9] was 0.13. The “Means absorbance 2 h” value [9] was 0.13, the “Means absorbance 3 h” value [9] was 0.15 and the “Formation … Means 0 h” value ([10]; Malate dehydrogenase and diaphorase, absence of malate, 0 h) was 0.51. For the same substance, the “Formation … Means 1 h” value ([10]; Malate dehydrogenase and diaphorase, absence of malate, 1 h) was 0.83, the “Formation … Means 2 h” value ([10]; Malate dehydrogenase and diaphorase, absence of malate, 2 h) was 0.99 and the “Formation … Means 3 h” value ([10]; Malate dehydrogenase and diaphorase, absence of malate, 3 h) was 1.06. For the same substance, the “Formation … Means 4 h” value ([10]; Malate dehydrogenase and diaphorase, absence of malate, 4 h) was 1.17, the “Formation … Means 6 h” value ([10]; Malate dehydrogenase and diaphorase, absence of malate, 6 h) was 1.24 and the “Formation … Means 8 h” value ([10]; Malate dehydrogenase and diaphorase, absence of malate, 8 h) was 1.35. For the same substance, the “Formation … Means 10 h” value ([10]; Malate dehydrogenase and diaphorase, absence of malate, 10 h) was 1.44, the “Formation … Means 12 h” value ([10]; Malate dehydrogenase and diaphorase, absence of malate, 12 h) was 1.47 and the “reduction of tetrazolium dye in the absence of substrate malate” value ([10]; malate dehydrogenase and diaphorase (TABLE 9)) was “partially reduced”. For the same substance, the “Absorbance, formation” value (Malate dehydrogenase) was 0.27 and 0.29 and 0.31 and 0.38, the “reduction by malate dehydrogenase alone” value (Malate dehydrogenase) was “did not catalyze the reduction” and the “Formation … Means 0 h” value ([11]; Malate dehydrogenase, diaphorase and malate, 0 h) was 0.51. The “Formation … Means 1 h” value ([11]; Malate dehydrogenase, diaphorase and malate, 1 h) was 0.81, the “Formation … Means 2 h” value ([11]; Malate dehydrogenase, diaphorase and malate, 2 h) was 0.99 and the “Formation … Means 3 h” value ([11]; Malate dehydrogenase, diaphorase and malate, 3 h) was 1.13. The “Formation … Means 4 h” value ([11]; Malate dehydrogenase, diaphorase and malate, 4 h) was 1.25, the “Formation … Means 6 h” value ([11]; Malate dehydrogenase, diaphorase and malate, 6 h) was 1.43 and the “Formation … Means 8 h” value ([11]; Malate dehydrogenase, diaphorase and malate, 8 h) was 1.57. The “Formation … Means 10 h” value ([11]; Malate dehydrogenase, diaphorase and malate, 10 h) was 1.68, the “Formation … Means 12 h” value ([11]; Malate dehydrogenase, diaphorase and malate, 12 h) was 1.75 and the “conversion to reduced formazan dyes” value ([11]; malate dehydrogenase, diaphorase and malate (TABLE 10)) was “converted to reduced formazan dyes in a time-dependent fashion; also recorded: able to catalyze the reduction”. The “Absorbance, formation” value [12] was 0.30 and 0.34 and 0.43 and 0.44, the “Absorbance, formation” value (diaphorase [13]; 0 h) was 0.08 and the “Absorbance, formation” value (diaphorase [13]; 1 h) was 0.10. For the same substance, the “Absorbance, formation” value (diaphorase [13]; 2 h) was 0.12, the “Absorbance, formation” value (diaphorase [13]; 3 h) was 0.14 and the “Absorbance, formation” value (diaphorase [13]; 4 h) was 0.16. For the same substance, the “Absorbance, formation” value (diaphorase [13]; 6 h) was 0.19, the “Absorbance, formation” value (diaphorase [13]; 8 h) was 0.23 and the “Absorbance, formation” value (diaphorase [13]; 10 h) was 0.26. The “Absorbance, formation” value (diaphorase [13]; 12 h) was 0.27.
